Data taken from publication PMC8160438, “A Novel Heptapeptide, GPPGPAG Transfers to the Brain, and Ameliorates Memory Dysfunction and Dendritic Atrophy in Alzheimer’s Disease Model Mice” (Frontiers in Pharmacology, 2021).
No end group written: not given here.

Columns and labels:
[1] = Plasma level after oral administration, LC-MS; format: in vivo; settings: 500 mg/animal, ddY mice, female, 8 weeks, 500 mg/mouse p.o. single dose, sampled at 10, 60, 180 min, n = 3, read-out: time of peak in the plasma (converted)
Procedure: Bioavailability and brain penetration of GPPGPAG was performed as previously described ([Yang et al., 2017]). GPPGPAG (500 mg) was dissolved in 750 μL of physiological saline. GPPGPAG or vehicle solution (physiological saline) was orally administered using an oral gavage to female ddY mice (8 weeks-old). The mice were euthanized at 10, 60, and 180 min after administration. Blood was collected and centrifuged at 10,000 g and 4°C for 10 min to yield plasma. Plasma aliquots (200 μL) were extracted with methanol, dried, sonicated, and resolubilized in 50% methanol (100 μL). The cerebral cortex was also collected after complete saline perfusion for removing blood. […]
FIGURE 6 Brain penetration of GPPGPAG after oral administration in mice GPPGPAG (500 mg/mouse, p. o.) or vehicle solution (physiological saline) was administered to mice (ddY, females, 8 weeks old, n = 3) as a single dose. […] (A) Total ion chromatogram (upper) and extracted ion current chromatogram (lower) of standard GPPGPAG (m/z = 552.2753) at 10 μg/ml for quantification of (B) and (C) data. […] In total ion chromatogram (upper) and extracted ion current chromatogram (lower) of m/z = 552.2753, no peaks were detected. […] In total ion chromatogram and extracted ion current chromatogram of m/z = 552.2753, peaks matching the retention time of GPPGPAG were detected. […]

[2] = Body weight during i.c.v. infusion; format: in vivo, mouse; settings: i.c.v. infusion for 28 days
Procedure: FIGURE 4 Effect of i.c.v. infusion of GPPGPAG on object recognition memory deficits in 5XFAD mice (A) GPPGPAG or vehicle solution (artificial cerebrospinal fluid; ACSF) was continuously administered to the lateral ventricle for 28 days in mice (male and female, 24–27 weeks old). The dose of GPPGPAG was set as 10 nM in CSF. An object recognition test was carried out with a 3 h interval time. The preferential indices of the training and test sessions are shown. *p < 0.05 vs. vehicle-treated 5XFAD mice, repeated measures two-way ANOVA with post hoc Bonferroni’s test. mean ± standard error. Wild-type (male, n = 5), vehicle-treated 5XFAD mice (male, n = 2; female, n = 2), GPPGPAG-infused 5XFAD mice (male, n = 2; female, n = 3). (B) Locomotion was evaluated by open field test. Distance moved and duration with immobility were shown. mean ± standard error (C) Changed values of body weight of mice during whole experimental period are shown.
P re fe re n tia l in d e x (% ) […]
Effect of i.c.v. infusion of GPPGPAG on object recognition memory deficits in 5XFAD mice
(A) GPPGPAG or vehicle solution (artificial cerebrospinal fluid; ACSF) was continuously administered to the lateral ventricle for 28 days in mice (females, 5 - 7 months old). The dose of GPPGPAG was set as 10 nM in ACSF. An object recognition test was carried out with a 24 h interval time. […] (B) Locomotion was evaluated by open field test. […]

GPPGPAG [GPPGPAG]
Tmax [1]: 10 min | body weight ([2]; 5XFAD mice, 10 nM in CSF): not significantly changed | body weight ([2]; female 5XFAD mice, 10 nM, separately performed experiment): no significant difference
